Data from patent publication US8507219B2, “Method of treating inflammation with statins” (MUSC Foundation for Research Development, priority 1997, dated 2013).
“Also recorded” adds a separate entry of the source.

Tests used:
[1] = tested on: control human skin fibroblasts; assay: β-oxidation of lignoceric acid in control human skin fibroblasts; assay type: cell-based; settings: 72 h
[2] = tested on: IL-1β production in rat primary microglia; assay: LPS-induced IL-1β production (ELISA) in rat primary microglia; assay type: cell-based
Protocol: (§1) Determination of TNF-α and IL-1β in culture supernatants Cells were stimulated with LPS in serum-free media for 24 h in the presence or absence of forskolin or rolipram, and concentrations of TNF-α and IL-1β were measured in culture supernatants by using high-sensitivity enzyme-linked immunosorbent assay (R&D Systems, USA) according to the manufacturer's instructions.

[3] = tested on: cultured skin fibroblasts of X-ALD; assay: VLCFA ratios (C26:0/C22:0, C24:0/C22:0) in X-ALD skin fibroblasts; assay type: cell-based, human; settings: about 15 days of treatment
iNOS = assay: Expression of iNOS protein (immunoblot) and mRNA (Northern) in rat primary astrocytes; assay type: cell-based; settings: 10 μM forskolin or 0.2 μM H-89 15 min before cytokines / LPS
Protocol: (§2) Immunoblot analysis for iNOS Following 24 h incubation in the presence or absence of stimuli by different cytokines or LPS, macrophages were scraped off, washed with Hank's buffer, and homogenized in 50 mM Tris-HCl (pH 7.4) containing protease inhibitors (1 nM PMSF, 5 μg/ml aprotinin, 5 μg/ml pepstatin A, and 5 μg/ml leupeptin). After electrophoresis the proteins were transferred onto a nitrocellulose membrane, and the iNOS band was visualized by immunoblotting with antibodies against mouse macrophage iNOS and [^125I]-labeled protein A (Singh et al., 1988).
RNA isolation, Northern blot analysis, and reverse-transcriptase coupled polymerase chain reaction (RT-PCR) Stimulated peritoneal macrophages were taken out from culture dishes directly by adding Ultraspec-II RNA reagent (Biotecx Laboratories Inc.) and total RNA was isolated according to the manufacturer's protocol. For northern blot analyses, 20 μg of total RNA was electrophoresed on 1.2% denaturing formaldehyde-agarose gels, electrotransferred to Hybond-Nylon Membrane (Amersham) and hybridized at 68° C. with ^32P-labeled cDNA probe using Express Hyb hybridization solution (Clontech) as described by the manufacturer. […]; After hybridization filters were washed two to three times in solution I (2×SSC, 0.05% SDS) for 1 h at room temperature followed by solution II (0.1×SSC, 0.1% SDS) at 50° C. for another hour. The membranes were then dried and exposed to X-ray film (Kodak). The same filters were stripped and rehybridized with probes for GAPDH. The relative mRNA content for iNOS was measured after scanning the bands with a Biorad (Model GS-670) imaging densitometer.
as §2, with “of” for “of stimuli by”, “stimuli, cells” for “cytokines or LPS, macrophages”, “inhibitors.” for “inhibitors (1 nM PMSF, 5 μg/ml aprotinin, 5 μg/ml pepstatin A, and 5 μg/ml leupeptin).”, “A.” for “A (Singh et al., 1988).”
RNA isolation and Northern blot analysis Cells were taken out from culture dishes directly by adding Ultraspec-II RNA reagent (Biotecx Laboratories Inc.) and total RNA was isolated according to the manufacturer's protocol. For Northern blot analyses, 20 μg of total RNA was electrophoresed on 1.2% denaturing formaldehyde-agarose gels, electrotransferred to Hybond-Nylon Membrane (Amersham) and hybridized at 68° C. with ^32P-labeled cDNA probe using Express Hyb hybridization solution (Clontech) as described by the manufacturer. […]; After hybridization filters were washed two or three times in solution I (2×SSC, 0.05% SDS) for one hour at room temperature followed by solution II (0.1×SSC, 0.1% SDS) at 50° C. for another hour. The membranes were then dried and exposed with X-ray films (Kodak). The same filters were stripped and rehybridized with probes for GAPDH. The relative mRNA content for iNOS was measured after scanning the bands with a Biorad (Model GS-670) imaging densitometer.
as §2, with “After a” for “Following”, “of” for “of stimuli by”, “stimuli, cells” for “cytokines or LPS, macrophages”, “mM” for “nM”, “A.” for “A (Singh et al., 1988).”
RNA isolation and Northern blot analysis Cells were taken out from culture dishes directly by adding Ultraspec-II RNA reagent (Biotecx Laboratories Inc., Houston, Tex.), and total RNA was isolated according to the manufacturer's protocol. […]

[4] = tested on: TNF-α production in rat primary microglia; assay: LPS-induced TNF-α production (ELISA) in rat primary microglia; assay type: cell-based
Protocol: as §1

[5] = tested on: NOS activity in rat resident macrophages; assay: NOS activity (L-citrulline from L-arginine) in homogenates of treated rat resident macrophages; assay type: cell-based; settings: LPS 1.0 μg/ml, 24 h
Protocol: NOS activity was measured directly by production of L-[2,3,4,5-^3H]citrulline from L-[2,3,4,5-^3H] arginine (Feinstein et al., 1994a). […] Assays were carried out for 30 to 40 min and the production of L-[2,3,4,5-^3H] citrulline was linear. The reactions were stopped by addition of 800 μl of ice-cold 20 mM HEPES (pH 5.5) followed by addition of 2 ml of Dowex-50W equilibrated in the same buffer. The samples were then centrifuged and the concentration of L-[^3H]citrulline was determined in the supernatant by liquid scintillation counting.

[6] = tested on: TNF-α production in rat resident macrophages; assay: LPS-/IFN-γ-induced TNF-α production (ELISA) in rat macrophages; assay type: cell-based
Protocol: Resident macrophages cultured in serum-free RPMI 1640 medium received 20 mM NAC or 100 μM PDTC 2 h before the addition of stimuli. When stimuli were used separately their concentrations were: LPS, 1.0 μg/ml; IFN-γ, 200 U/ml, and when they were used together, their concentrations were: LPS, 0.2 μg/ml; IFN-γ, 50 U/ml. Supernatants were collected 24 h after the addition of stimuli to measure TNF-α concentration using ELISA as described.

[7] = tested on: ceramide production in rat primary astrocytes; assay: Degradation of sphingomyelin to ceramide (DAG kinase assay, HPTLC) in rat primary astrocytes; assay type: cell-based; settings: 10 mM NAC or 100 μM PDTC 1 h before TNF-α or IL-1β (50 ng/ml), diamide 0.5 mM or aminotriazole 5 mM
Protocol: Lipid extraction Approximately 1.0×10^6 cells were exposed to different cytokines in the presence or absence of antioxidants for different periods and lipids were extracted according to the methods described by Welsh (1996).
Quantification of sphingomyelin by HPTLC and densitometry Sphingomyelin was separated from total lipid extracts by HPTLC (LPK-plates from Whatman Labsales, USA) as described (Ganser et al., 1988) for phospholipids with the modification, that the plate was overrun for 30 min during its development and was dried overnight in vacuum desicator. Sphingomyelin was quantitated by densitometric scanning using Imaging Densitometer (Model GS-670; Bio-Rad, USA) and software provided with the instrument by the manufacturer.
Quantification of ceramide levels by diacylglycerol kinase assay Ceramide content was quantified essentially according to Priess et al. using diacylglycerol (DAG) kinase and [γ-^32P]ATP (Priess et al., 1986). Briefly, dried lipids were solubilized in 20 μl of an octyl β-D-glucoside/cardiolipin solution (7.5% octyl β-D-glucoside, 5 mM cardiolipin in 1 mM DTPA) by sonication in a sonicator bath. […] The labeled ceramide 1-phosphate was resolved with a solvent system consisting of methyl acetate: n-propanol:chloroform:methanol:0.25% KCl in water:acetic-acid (100:100:100:40:36:2). A standard sample of ceramide was phosphorylated under identical conditions and developed in parallel. […] Quantification of ceramide 1-phosphate was carried out by autoradiography and densitometric scanning using Imaging Densitometer (Model GS-670; Bio-Rad, USA). Values are expressed either as arbitrary units (absorbance) or as percent change.
Lipid Extraction Approximately 1.0×10^6 cells were exposed to different cytokines in the presence or absence of antioxidants for different periods, and lipids were extracted according to the methods described by Welsh (1996).
Quantification of Sphingomyelin by High Performance TLC and Densitometry Sphingomyelin was separated from total lipid extracts by high performance TLC (LHPK plates from Whatman) as described by Ganser et al. (1988) for phospholipids with the following modification: the plate was overrun for 30 min during its development and was dried overnight in vacuum desiccator. Sphingomyelin was quantitated by densitometric scanning using Imaging Densitometer (model GS-670; Bio-Rad), and software was provided with the instrument by the manufacturer.
Quantification of Ceramide Levels by Diacylglycerol Kinase Assay Ceramide content was quantified essentially according to Priess et al. (1986) using diacylglycerol (DAG) kinase and [γ-^32P]ATP. Briefly, dried lipids were solubilized in 20 μl of an octyl β-D-glucoside/cardiolipin solution (7.5% octyl β-D-glucoside, 5 mM cardiolipin in 1 mM DTPA) by sonication in a sonicator bath. […] The labeled ceramide-1-phosphate was resolved with a solvent system consisting of methyl acetate:n-propyl alcohol:chloroform:methanol, 0.25% KCl in water:acetic acid (100:100:100:40:36:2). A standard sample of ceramide was phosphorylated under identical conditions and developed in parallel. […] Quantification of ceramide-1-phosphate was carried out by autoradiography and densitometric scanning using Imaging Densitometer (model GS-670; Bio-Rad). Values are expressed either as arbitrary units (absorbance) or as percent change.

## O=S(=O)(NCCNC/C=C/c1ccc(Br)cc1)c1cccc2cnccc12 [H-89]
[1]; forskolin 4 μM, 1,9 dideoxy forskolin 4 μM, 8-Br-cAMP 50 μM, H-89 1 μM, myristoylated PKI 0.2 μM, Control 565.2 ± 48.3
  Lignoceric acid β-oxidation: 405.6 ± 44.1 pmol/h/mg protein
[2]
  LPS-induced production of IL-1β: stimulated the production of these proinflammatory cytokines in rat primary microglia
[3]
  ratios of C26:0/C22:0 and C24:0/C22:0 / level of VLCFA: blocked the observed effect of forskolin on the level of VLCFA
iNOS
  cytokine-induced expression of iNOS: stimulated the cytokine-induced expression of iNOS
[4]
  LPS-induced production of TNF-α: stimulated the production of these proinflammatory cytokines in rat primary microglia

## CC[C@H](C)C(=O)O[C@H]1CCC=C2C=C[C@H](C)[C@H](CC[C@@H]3C[C@@H](O)CC(=O)O3)[C@H]21 [Mevastatin]
[1]; Lovastatin 5 μM, Mevastatin 5 μM, NaPA 5 mM, Control 570.2 ± 52.3
  Lignoceric acid β-oxidation: 889.6 ± 78.4 pmol/h/mg protein

## S=C(S)N1CCCC1 [PDTC, pyrrolidine dithiocarbamate]
[5]
  LPS-induced NOS activity, L-citrulline formation: inhibited LPS-induced NOS activity
[6]; LPS 0.2 μg/ml + IFN-γ 50 U/ml, 20 mM NAC or 100 μM PDTC 2 h before
  Inhibition (%): 96%
[6]; LPS 0.2 μg/ml + IFN-γ 50 U/ml, 20 mM NAC or 100 μM PDTC 2 h before, 24 h
  TNF-α: 1.4 ± 0.3 ng/24 h/mg protein
[6]; LPS 1.0 μg/ml, 20 mM NAC or 100 μM PDTC 2 h before
  Inhibition (%): 95%
[6]; LPS 1.0 μg/ml, 20 mM NAC or 100 μM PDTC 2 h before, 24 h
  TNF-α: 0.9 ± 0.1 ng/24 h/mg protein
[6]; antioxidant alone (20 mM NAC or 100 μM PDTC), no stimulus
  TNF-α: 0.7 ± 0.2 ng/24 h/mg protein
[7]
  degradation of sphingomyelin to ceramide / ceramide production: potentially blocked the decrease in sphingomyelin as well as the increase in ceramide; also recorded: also inhibited cytokine-mediated degradation of SM to ceramide
